{
  "source": "patent US12180252B2",
  "about": "“Peptide derived from PEP27 peptide and uses thereof” (priority 2021, dated 2024)",
  "key": {"L. monocytogens KCTC3710": {"tested_on": "L. monocytogens KCTC3710", "assay_type": "cell-based, Listeria monocytogenes", "experimental": "(§1) In order to evaluate the antimicrobial activity of the peptides prepared by the method of above 1, a minimal inhibitory concentration (MIC) value as the minimum concentration of a peptide, in which cells are not divided, was measured.\n(§2) Specifically, the strains shown in Table 3 below were purchased, cultured in a medium having a constitutional composition suitable for each strain to a mid-log phase, and then diluted to a concentration of 2×10^4 cells/100 μl to prepare the product on a micro-titration plate (Nunc, USA). Then, PEP27, PEP27-1, PEP27-2 or PEP27-5 peptide synthesized in the above 1 was added to each well by serial dilution ½ times, followed by incubation at 37° C. for 18 hours."}, "E. coli CCARM1229": {"tested_on": "E. coli CCARM1229", "assay_type": "cell-based, Escherichia coli", "conditions": "37° C., 24 hours"}, "S. aureus ATCC29213 [1]": {"tested_on": "S. aureus ATCC29213", "assay_type": "cell-based, Staphylococcus aureus", "excerpt": "(§3) Biofilms may form on a wide variety of surfaces, including living or dead surfaces, and biofilm-associated bacteria are more tolerant to antibiotics than planktonic bacterial cells, making them antibiotic-resistant. To assess the efficacy of PEP27-2 against biofilms, we observed the anti-biofilm activity of PEP27-2 in S. aureus (ATCC 25923 and CCARM 3090), E. coli (ATCC 25922 and CCARM 1238), and P. aeruginosa (ATCC 27853 and 4891).\n(§4) Specifically, among the strains listed in Table 3 above, Staphylococcus aureus, E. coli and Pseudomonas erujinosa, respectively, were cultured in each medium to a mid-log phase, diluted to a cell concentration of 5×10^4 cells/100 μl, and then, inoculated into a micro-plate (SPL). Then, PEP27-2 peptide was diluted 1/10 times with 10 mM PBS solution (pH 7.2) and 10 μl of the solution was added to each well, followed by incubation at 37° C. for 24 hours. After completely removing the supernatant, the solution was fixed with 100% methanol for 15 minutes, stained with a crystal violet dye solution for 1 hour, washed 3 times, and then dissolved in 95% ethanol, followed by measuring the absorbance at a wavelength of 595 nm using a micro titration plate reader, thereby determining a biofilm minimal inhibitory concentration value for each strain."}, "S. aureus CCARM3518": {"tested_on": "S. aureus CCARM3518", "assay_type": "cell-based, Staphylococcus aureus", "conditions": "37° C., 24 hours", "excerpt": "as §3, §4"}, "[2]": {"tested_on": "red blood cells of a rat (Balb/c)", "conditions": "37° C., 1 hour"}, "B. subtilis KCTC1998": {"tested_on": "B. subtilis KCTC1998", "assay_type": "cell-based, Bacillus subtilis", "experimental": "as §1, §2"}, "E. coli ATCC27325": {"tested_on": "E. coli ATCC27325", "assay_type": "cell-based, Escherichia coli", "experimental": "as §1, §2"}, "E. coli CCARM1238": {"tested_on": "E. coli CCARM1238", "assay_type": "cell-based, Escherichia coli", "conditions": "E. coli CCARM1238, antibiotics-tolerant; 37° C., 18 hours", "experimental": "as §1, §2"}, "S. aureus ATCC29213 [3]": {"tested_on": "S. aureus ATCC29213", "assay": "microbe, parasite or virus in culture", "conditions": "ATCC29213, 18 h", "how_it_was_run": "(§5)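 Peptide growth inhibition measured by twofold dilution against mid-log bacteria (2×10^4 cells/100 μl), 37° C, 18 hours; endpoint was absence of cell division. Meropenem, ceftazidime, ceftriaxone and vancomycin were run in parallel.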"}, "P. aeruginosa ATCC27853": {"tested_on": "P. aeruginosa ATCC27853", "assay": "microbe, parasite or virus in culture", "conditions": "ATCC27853, 18 h", "how_it_was_run": "as §5"}, "S. aureus ATCC25923": {"tested_on": "S. aureus ATCC25923", "assay": "microbe, parasite or virus in culture", "conditions": "ATCC25923, 18 h", "how_it_was_run": "as §5"}, "S. aureus USA300": {"tested_on": "S. aureus USA300", "assay": "microbe, parasite or virus in culture", "conditions": "S. aureus USA300, antibiotics-tolerant; 37° C., 18 hours", "how_it_was_run": "as §5"}, "S. aureus MW2": {"tested_on": "S. aureus MW2", "assay": "microbe, parasite or virus in culture", "conditions": "S. aureus MW2, antibiotics-tolerant; 37° C., 18 hours", "how_it_was_run": "as §5"}, "E. coli ATCC 25922": {"tested_on": "E. coli ATCC 25922", "assay": "Time-kill kinetics", "assay_type": "cell-based, Escherichia coli", "conditions": "at MIC, after 20 min of treatment", "experimental": "Time-killing kinetics were analyzed for E. coli ATCC 25922 and S. aureus ATCC 25923 in the presence of PEP27-2 at their respective MICs. The bacterial cells were cultured overnight until they reached the exponential growth phase; they were then incubated at 37° C. for an additional 10 min from 0 min to 1 h. The total bacterial population was then stained with QUANTOM total cell staining dye, after which the stained cells were mixed with QUANTOM cell loading buffer and loaded into QUANTOM M50 Slides. The slides were centrifuged using the QUANTOM centrifuge to evenly distribute them throughout the counting chamber and ensure accurate cell counts. Intracellular fluorescence was detected using the QUANTOM Tx microbial cell counter, which captures and counts cells automatically (Logos Biosystems, Gyeonggi-do, South Korea)."}, "[4]": {"conditions": "Peptide concentration 100 μM, 100% = 1% Triton X-100"}},
  "note": "Where “and” joins values, the source holds several entries; their conditions need not be identical. Identical values can stand only once. Like-named read-outs stand apart in the source and are kept apart here. Where a SMILES comes first, the peptide text is derived from it.",
  "data": [
    {"smiles": "CC[C@H](C)[C@H](NC(=O)CN)C(=O)NCC(=O)N[C@@H](C)C(=O)N[C@H](C(=O)N[C@@H](CC(C)C)C(=O)N[C@@H](CCCCN)C(=O)N[C@H](C(=O)N[C@@H](CC(C)C)C(=O)N[C@H](C(=O)N[C@H](C(=O)NCC(=O)N[C@@H](CC(C)C)C(=O)N1CCC[C@H]1C(=O)N[C@@H](C)C(=O)N[C@@H](CC(C)C)C(=O)N[C@H](C(=O)N[C@@H](CO)C(=O)N[C@@H](Cc1c[nH]c2ccccc12)C(=O)N[C@H](C(=O)N[C@@H](CCCCN)C(=O)N[C@@H](CCCNC(=N)N)C(=O)N[C@@H](CCCCN)C(=O)N[C@@H](CCCNC(=N)N)C(=O)N[C@@H](CCC(N)=O)C(=O)N[C@@H](CCC(N)=O)C(N)=O)[C@@H](C)CC)[C@@H](C)CC)[C@@H](C)O)[C@@H](C)O)C(C)C)C(C)C", "note": "[Melittin, reference compound]", "values": [
      {"measurement": "Minimal inhibitory concentration", "setting": "L. monocytogens KCTC3710; L. monocytogens KCTC3710, Gram-positive, 37° C., 18 hours", "value": 4, "unit": "µM"},
      {"measurement": "Biofilm minimal inhibitory concentration", "setting": "E. coli CCARM1229", "value": 4, "unit": "µM"},
      {"measurement": "Biofilm minimal inhibitory concentration", "setting": "S. aureus ATCC29213 [1]; S. aureus ATCC29213, 37° C., 24 hours", "value": 4, "unit": "µM"},
      {"measurement": "Biofilm minimal inhibitory concentration", "setting": "S. aureus CCARM3518", "value": 8, "unit": "µM"},
      {"measurement": "Erythrocyte destruction ability", "setting": "[2]; Peptide concentration 3.13 μM", "value": 27.33, "unit": "%"},
      {"measurement": "Erythrocyte destruction ability", "setting": "[2]; Peptide concentration 6.25 μM", "value": 49.41, "unit": "%"},
      {"measurement": "Erythrocyte destruction ability", "setting": "[2]; Peptide concentration 12.5 μM", "value": 69.75, "unit": "%"},
      {"measurement": "Erythrocyte destruction ability", "setting": "[2]; Peptide concentration 25 μM", "value": 83.99, "unit": "%"},
      {"measurement": "Erythrocyte destruction ability", "setting": "[2]; Peptide concentration 50 μM", "value": 97.76, "unit": "%"},
      {"measurement": "Erythrocyte destruction ability", "setting": "[2]; [4]", "value": 99.17, "unit": "%"},
      {"measurement": "Minimal inhibitory concentration", "setting": "B. subtilis KCTC1998; B. subtilis KCTC1998, Gram-positive, 37° C., 18 hours", "value": 4, "unit": "µM"},
      {"measurement": "Minimal inhibitory concentration", "setting": "E. coli ATCC27325; E. coli ATCC27325, Gram-negative, 37° C., 18 hours", "value": 2, "unit": "µM"},
      {"measurement": "Minimal inhibitory concentration", "setting": "E. coli CCARM1238", "value": 4, "unit": "µM"}
    ]},
    {"smiles": "CSCC[C@H](N)C(=O)N[C@@H](Cc1c[nH]c2ccccc12)C(=O)N[C@@H](CCCCN)C(=O)N[C@@H](Cc1c[nH]c2ccccc12)C(=O)N[C@@H](Cc1ccccc1)C(=O)N[C@@H](Cc1c[nH]cn1)C(=O)N[C@@H](CC(N)=O)C(=O)N[C@H](C(=O)N[C@@H](CC(C)C)C(=O)N[C@@H](CO)C(=O)N[C@@H](Cc1c[nH]c2ccccc12)C(=O)NCC(=O)N[C@@H](Cc1c[nH]c2ccccc12)C(=O)N[C@@H](CC(C)C)C(=O)N[C@@H](CC(C)C)C(=O)N[C@@H](C)C(=O)N[C@@H](CC(=O)O)C(=O)N[C@@H](CCCCN)C(=O)N[C@@H](CCCNC(=N)N)C(=O)N1CCC[C@H]1C(=O)N[C@@H](C)C(=O)N[C@@H](CCCNC(=N)N)C(=O)N[C@@H](CC(=O)O)C(=O)N[C@@H](Cc1ccc(O)cc1)C(=O)N[C@@H](CC(N)=O)C(=O)N[C@@H](CCCNC(=N)N)C(=O)N[C@@H](CCCCN)C(N)=O)C(C)C", "note": "[PEP27-2] (H-MWKWFHNVLSWGWLLADKRPARDYNRK-NH2)", "values": [
      {"measurement": "Minimal inhibitory concentration", "setting": "L. monocytogens KCTC3710; KCTC3710, 18 h", "value": 8, "unit": "µM"},
      {"measurement": "Biofilm minimal inhibitory concentration", "setting": "E. coli CCARM1229", "value": 8, "unit": "µM"},
      {"measurement": "Biofilm minimal inhibitory concentration", "setting": "S. aureus ATCC29213 [1]; ATCC29213, 24 h", "value": 4, "unit": "µM"},
      {"measurement": "Biofilm minimal inhibitory concentration", "setting": "S. aureus CCARM3518", "value": 4, "unit": "µM"},
      {"measurement": "Minimal inhibitory concentration", "setting": "S. aureus ATCC29213 [3]", "value": 2, "unit": "µM"},
      {"measurement": "Minimal inhibitory concentration", "setting": "P. aeruginosa ATCC27853", "value": 4, "unit": "µM"},
      {"measurement": "Minimal inhibitory concentration", "setting": "S. aureus ATCC25923", "value": 2, "unit": "µM"},
      {"measurement": "Minimal inhibitory concentration", "setting": "S. aureus USA300", "value": 2, "unit": "µM"},
      {"measurement": "Minimal inhibitory concentration", "setting": "S. aureus MW2", "value": "3 µM and 4 µM"},
      {"measurement": "Erythrocyte destruction ability", "setting": "[2]; Peptide concentration 3.13 μM", "value": 0, "unit": "%"},
      {"measurement": "Erythrocyte destruction ability", "setting": "[2]; Peptide concentration 6.25 μM", "value": 2.30, "unit": "%"},
      {"measurement": "Erythrocyte destruction ability", "setting": "[2]; Peptide concentration 12.5 μM", "value": 14.96, "unit": "%"},
      {"measurement": "Erythrocyte destruction ability", "setting": "[2]; Peptide concentration 25 μM", "value": 40.51, "unit": "%"},
      {"measurement": "Erythrocyte destruction ability", "setting": "[2]; Peptide concentration 50 μM", "value": 62.47, "unit": "%"},
      {"measurement": "Erythrocyte destruction ability", "setting": "[2]; [4]", "value": "75.8% and 75.84%"},
      {"measurement": "decrease in E. coli cell viability", "setting": "E. coli ATCC 25922", "value": 98.63, "unit": "%"},
      {"measurement": "Minimal inhibitory concentration", "setting": "B. subtilis KCTC1998; KCTC1998, 18 h", "value": 4, "unit": "µM"},
      {"measurement": "Minimal inhibitory concentration", "setting": "E. coli ATCC27325; ATCC27325, 18 h", "value": 4, "unit": "µM"},
      {"measurement": "Minimal inhibitory concentration", "setting": "E. coli CCARM1238", "value": 4, "unit": "µM"}
    ]}
  ]
}
